From patent US20040115162A1, “Dermatological preparations” (KAO CORPORATION, priority 1999, published 2004) come the findings set out here.

Data set [1] deals with chapping in cheeks. The data set is described as follows: Test 1: skin chapping score by naked-eye observation after 2-week application on cheeks. The data set is classed as in vivo, human. Particulars: 33% diamide derivative and 67% vaseline, 2 weeks, mean score, 0 no chapping to 4 serious chapping. The method, then:
(§1) Dermatologic preparations (invention products) composed of 33% of each of the diamide derivatives prepared in Preparation Examples 1 to 18 and 67% of vaseline were prepared. Their effects on skin conductance and chapping were evaluated in the below-described manner. For comparison, a dermatologic preparation (Comparative Product 1) composed of vaseline alone was evaluated in the same manner.
(§2) Ten female subjects aged 20 to 50 years, who suffered chapping in cheeks in winter, were employed. Different dermatologic preparations were applied on the right and left cheeks of the subjects for 2 weeks, respectively. On the next day after completion of the application for 2 weeks, the following items were examined.
Each score is expressed in the mean value.
0: No chapping is observed.
1: Slight chapping is observed.
3: Somewhat serious chapping is observed.
4: Serious chapping is observed.

Data set [2] relates to dorsal skin of rats with essential fatty acid deficiency. Nature of the data set: Test 2: transepidermal water loss in rats with essential fatty acid deficiency. The data set is classed as in vivo, Wistar male rats. On the set-up: unit not given here. The following applies: 10% diamide derivative and 90% squalane; applied to shaven dorsal part once a day for 2 weeks; evaporimeter; mean of 5 rats. The procedure: (§3) Dermatologic preparations (invention products) of the present invention composed of 10% of each of the diamide derivatives prepared in Preparation Examples 1 to 18 and 90% of squalane were prepared and their transepidermal water loss and percutaneous absorption were evaluated by the below-described test method. For comparison, a dermatologic preparation (Comparative Product 2) composed of squalane alone was also evaluated by the test.
(§4) Wistar male rats were fed with a feed free from essential fatty acids and the resulting rats with essential fatty acid deficiency were employed in this test. The dorsal part of the rat showing essential fatty acid deficiency was carefully shaven and each dermatologic preparation to be evaluated was applied thereto once a day for 2 weeks. A group consisting of 5 rats was provided for the test of each dermatologic preparation. After 2 weeks, the following items were examined.
The dorsal part of the test rat was washed with warm water and the animal was the allowed to stand in a room (at 23° C. under a humidity of 45%) for 1 hour. The transepidermal water loss was then measured with an evaporimeter. Each measured value is expressed in mean value.

Data set [3] can be described thus: Miscibility and mixing stability in cosmetic formulations. The data set is classed as physicochemical.
The subject of data set [4] is dorsal skin of rats with essential fatty acid deficiency. Nature of the data set: Test 2: percutaneous absorption of 14C-salicylic acid through excised dorsal skin of treated rats. The data set is classed as in vivo, Wistar male rats. Particulars: 10% diamide derivative and 90% squalane; once a day for 2 weeks; radioactivity of 14C-salicylic acid penetrated in 2 hours through excised skin; mean. The method, then:
as §3, §4
After the dorsal skin of the rat was washed with warm water of 37° C., it was cut and fixed in a percutaneous absorption chamber with the epidermal side thereof directed upward. A lower receiver of the chamber was filled with a phosphate buffer solution while a container on the epidermal side thereof was charged with 1 ml of a phosphate buffer solution containing 37 KBq of ^14C-salicylic acid. Two hours after they were allowed to stand, 1 mL of the phosphate buffer solution was taken out of the lower receiver and the radioactivity of the ^14C-salicylic acid which had penetrated into it was measured. Each value is expressed in mean value.

For data set [5], the system named is horny layer. Nature of the data set: Test 1: skin conductance (water content of the horny layer) after 2-week application on cheeks. The data set is classed as in vivo, human. On the set-up: unit not given here. Particulars: preparation of 33% diamide derivative and 67% vaseline; applied on cheeks 2 weeks; ten female subjects with chapping; skin conductance meter, 20° C., humidity 45%. The procedure:
as §1, §2
The face of each subject was washed with warm water of 37° C. After they were allowed to stand in a room at 20° C. under a humidity of 45% for 20 minutes, the water content of the horny layer was measured using a skin conductance meter (product of IBS Co., Ltd.).

The mark [6] stands for this setting: in hair liquid composition of Table 10, 1%.

In data set [1], `COCCCNC(=O)CCCCCCC(C)CCCCC(C)CCCCCCC(=O)NCCCOC` (stereo not drawn) [Compound (F)] had a Skin chapping score of 1.2. Further, the Transepidermal water loss in data set [2] stood at 20. For the same compound, the “miscibility and mixing stability” value in data set [3] (in O/W cream of Table 8, 3.5%) is “excellent”; in data set [3] (setting [6]) it was “excellent”; in data set [3] (in shampoo of Table 9, 2%), “excellent”; in data set [3] (in skin lotion of Table 7, 1%), “excellent”. The Percutaneous absorption in data set [4] is reported as 1487. The same compound yielded a Skin conductance in data set [5] of 20.

Compound `COCCCNC(=O)CCCCCCCCCCCCCCCCCCC(=O)NCCCOC` [Compound (L)] returned a Skin chapping score in data set [1] of 1.3. Moreover, in data set [2], the Transepidermal water loss came to 15. The Percutaneous absorption in data set [4] is listed as 705. Further, in data set [5], the Skin conductance was determined as 19.

`COCCCNC(=O)CCCCCCCCC(=O)NCCCOC` [Compound (N)]: the Skin chapping score in data set [1] is given as 1.5. This compound also returned a Transepidermal water loss in data set [2] of 23. Further, in data set [4], the Percutaneous absorption is recorded as 1560. Further, the Skin conductance in data set [5] is recorded as 18.

In turn, `CCCCCCCCCCCCOCCCNC(=O)CCCCCCC(C)CCCCC(C)CCCCCCC(=O)NCCCOCCCCCCCCCCCC` (stereo not drawn) [Compound (G)] registered a Skin chapping score in data set [1] of 1.1. The compound also yielded a Transepidermal water loss in data set [2] of 16. Besides, the Percutaneous absorption in data set [4] is listed as 1096. The compound also yielded a Skin conductance in data set [5] of 17.

For `O=C(CCC(=O)NCCOCCO)NCCOCCO` [Compound (E)], the Skin chapping score in data set [1] worked out at 1.0. For the same compound, the Transepidermal water loss in data set [2] worked out at 25. In addition, the Percutaneous absorption in data set [4] is listed as 1772. In data set [5], this compound registered a Skin conductance of 18.

With `O=C(CCCCCCCCCCCCCCCCCCC(=O)NCCOCCO)NCCOCCO` [Compound (C)], in data set [1], the Skin chapping score was found to be 1.0. Besides, the Transepidermal water loss in data set [2] is 21. In data set [4], the Percutaneous absorption was determined as 1685. The same compound registered a Skin conductance in data set [5] of 21.

The compound `O=C(CCCCCCCCCCCC(=O)NCCOCCO)NCCOCCO` [Compound (J)] showed a Skin chapping score in data set [1] of 0.8. Besides, the Transepidermal water loss in data set [2] is 21. In addition, the Percutaneous absorption in data set [4] was found to be 1490. In data set [5], this compound displayed a Skin conductance of 23.

In the case of `CC(CCCCCCC(=O)NCCOCCO)CCCCC(C)CCCCCCC(=O)NCCOCCO` (stereo not drawn) [Compound (A)], the Skin chapping score in data set [1] stood at 0.6. Moreover, the Transepidermal water loss in data set [2] was determined as 12. In addition, the “miscibility and mixing stability” value in data set [3] (in shampoo of Table 9, 2%) is reported as “excellent”; in data set [3] (in skin lotion of Table 7, 1%), “excellent”. For the same compound, the Percutaneous absorption in data set [4] came out at 572. This compound also registered a Skin conductance in data set [5] of 28.

On to `COCCCNC(=O)CCCCCCCCCCC(=O)NCCCOC` [Compound (M)], for which the Transepidermal water loss in data set [2] was 25. Moreover, the Percutaneous absorption in data set [4] came to 2038.

The compound `C/C(=C\CC/C=C(\C)CCCCCCC(=O)NCCOCCO)CCCCCCC(=O)NCCOCCO` [Compound (B)] registered a Skin chapping score in data set [1] of 0.9. The same compound yielded a Transepidermal water loss in data set [2] of 12. Moreover, in data set [4], the Percutaneous absorption is on record as 558. This compound also displayed a Skin conductance in data set [5] of 25.

For the compound `O=C(CCCCCCCCC(=O)NCCOCCO)NCCOCCO` [Compound (D)], in data set [1], the Skin chapping score is 0.5. Moreover, the Transepidermal water loss in data set [2] is 15. Besides, the “miscibility and mixing stability” value in data set [3] (in O/W cream of Table 8, 3.5%) is listed as “excellent”; in data set [3] (setting [6]) it was “excellent”. Further, in data set [4], the Percutaneous absorption stood at 997. The Skin conductance in data set [5] is 30.

In data set [2], `O=C(CCCCCCCCCCCCCC(=O)NCCOCCO)NCCOCCO` [Compound (I)] gave a Transepidermal water loss of 18. Also, the Percutaneous absorption in data set [4] came to 1197.

In data set [2], `O=C(CCCCCCCCCCC(=O)NCCOCCO)NCCOCCO` [Compound (K)] showed a Transepidermal water loss of 22. The Percutaneous absorption in data set [4] is reported as 1694.

The compound `CCCCCCCCCCCCOCCCNC(=O)CCCCCCCCC(=O)NCCCOCCCCCCCCCCCC` [Compound (O)] returned a Transepidermal water loss in data set [2] of 27. Besides, the Percutaneous absorption in data set [4] is reported as 2476.

In data set [1], `COCCOCCNC(=O)CCCCCCC(C)CCCCC(C)CCCCCCC(=O)NCCOCCOC` (stereo not drawn) [Compound (H)] displayed a Skin chapping score of 1.3. In data set [2], the Transepidermal water loss stood at 23. For the same compound, in data set [4], the Percutaneous absorption came to 2036. The compound also had a Skin conductance in data set [5] of 19.
